US8710098B2, “Group of amino substituted benzoyl derivatives and their preparation and their use” (priority 2008, dated 2014)

What follows are compounds tested against T1, hA3G degradation mediated by HIV-1 Vif (UniProt P69723+Q9HC16) (assay: Screening experiment for up-regulation activity to hA3G (YFP-fused hA3G co-expressed with HIV-1 Vif, fluorescence)). Details: YFP fluorescence of cells co-expressing Vif and hA3G-YFP; excitation 485 nm, detection 520 nm; averages of duplicates.
T1 construct: expressed in transfected cells
T1 sequence (P69723 whole entry, the tested form may be a part): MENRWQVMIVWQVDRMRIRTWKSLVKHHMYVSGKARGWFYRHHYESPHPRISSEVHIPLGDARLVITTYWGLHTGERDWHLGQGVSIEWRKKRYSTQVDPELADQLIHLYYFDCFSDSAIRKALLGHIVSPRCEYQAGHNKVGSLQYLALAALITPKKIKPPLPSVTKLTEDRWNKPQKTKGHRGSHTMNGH
T1 sequence (Q9HC16 whole entry, the tested form may be a part): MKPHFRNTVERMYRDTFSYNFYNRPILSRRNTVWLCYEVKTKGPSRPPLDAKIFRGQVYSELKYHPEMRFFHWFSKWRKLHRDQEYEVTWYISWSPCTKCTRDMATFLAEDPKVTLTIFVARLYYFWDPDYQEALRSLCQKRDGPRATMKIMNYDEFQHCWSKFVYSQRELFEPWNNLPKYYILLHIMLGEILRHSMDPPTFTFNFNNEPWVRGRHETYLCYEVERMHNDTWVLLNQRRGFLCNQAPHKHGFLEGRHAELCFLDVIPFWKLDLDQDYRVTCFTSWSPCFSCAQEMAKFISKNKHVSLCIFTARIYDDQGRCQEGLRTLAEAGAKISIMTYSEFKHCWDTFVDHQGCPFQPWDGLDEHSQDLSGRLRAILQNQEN
Format: cell-based, human
Excerpt: Based on the advances making research on the hA3G degradation mediated by HIV-1 Vif, this invention establishes a high throughput anti-HIV-1 drug screening model using hA3G degradation mediated by HIV-1 Vif as target, to screen small molecule active compounds capable of inhibiting this degradation process. The function principle of this model is that HIV-1 Vif protein and hA3G fused yellow fluorescent protein (YFP) co-expressed in the cells, then the intracellular fluorescence intensity (at […]) decreases owing to the degradation of hA3G caused by Vif and subsequent degradation of YEP fused on hA3G. By means of measuring the change of fluorescent intensity, the influence of the screened compounds on the degradation of hA3G caused by Vif can quantitatively be analyzed. Simultaneously, to differentiate the non-specific inhibitory effect of diverse ubiquitin degradation route in the samples, this invention establishes a recheck model based on the detection of P53 degradation caused by the product of adenovirus early gene, to assure that the positive samples screened out by the proposed model can specifically block the degradation of hA3G caused by Vif.
Screening Experiment for Up-Regulation Activity to hA3G
The cells are picked up and cultured a culture bottle. When the cells grow full of the culture bottle, old culture medium is discarded and the cells are digested with digestion medium. When the cells turn round, the digestion medium is discarded and the culture medium is added in at once, the bottom of the bottle is gently blown with a pipette to make the cells disengage the bottle bottom and disperse into single cell suspension. After counting the cells using blood cell counting chamber, the cell suspension is inoculated into a culture dish for transfection. The medium containing the plasmid to be transfected and the transfection reagents is gently mixed up and incubated at room temperature. The medium is then added into the supernatant of the cell culture and cultured for a certain period of time. The old culture medium is then sucked out, the cells are digested with digestive medium, the digestive medium is subsequently discarded and culture medium is immediately added. The medium is gently blown to disperse the cells into single cell suspension. After counting the cells using blood cell counting chamber, the cells are ready for inoculation.
Samples of compounds[…]Pure tested compounds are dissolved in DMSO, the solution is diluted with equal proportional distilled water. The diluent is used to test the cell systems.
Sample solution of different concentration is added into the supernatant of a cell culture. After the cells are continuously cultured, old culture medium is sucked out and the cells are blown with PBS buffer until the cells completely disengage from the culture bottle.
The fluorescence intensity values of the cell suspension with test compound samples, positive control samples and negative control samples are respectively measured with fluorometer, the excitation wavelength is 485 nm and the detection wavelength 520 nm. Averages of duplicated measurements are taken as the results.
The measured fluorescence intensity values of the negative control samples (blink sample) subtracted from those of test compound samples, the results are taken as YFP fluorescence of different groups. Relative fluorescence intensity=fluorescence intensity of a test sample group/fluorescence intensity of the positive control group×100% Inhibition rate of degradation=(test sample group−negative control group)/(positive control group−negative control group)×100%

Point of comparison: `COc1ccc(C(=O)Nc2cc(OC)c(OC)c(OC)c2)cc1NC(=O)CCl` [Compound 1, N-(3′,4′,5′-trimethoxyphenyl)-3-(2-chloroacetamido)-4-methoxybenzamide], “hA3G up-regulation activity (%)” value 36.3%. Against it:
- CNc1cc(C(=O)Nc2cc(OC)nc(OC)n2)ccc1O [Compound 3, N-(2′,6′-dimethoxypyrimidinyl-4′-) 3-methylamino-4-hydroxylbenzamide] — lower, 20.2%
- COc1ccc(C(=O)Oc2cc(OC)c(OC)c(OC)c2)cc1N [Compound 4] — lower, 1.6%
- COc1ccc(C(=O)Sc2cc(OC)c(OC)c(OC)c2)cc1N [Compound 5, S-(3′,4′,5′-trimethoxyphenyl) 3-amino-4-methoxybenzenecarbothioate] — lower, 14.4%
- COc1ccc(C(=O)Cc2cc(OC)c(OC)c(OC)c2)cc1N [Compound 6] — lower, 28.7%
- CCC(=O)Nc1cc(C(=O)Sc2cc(OC)c(OC)c(OC)c2)ccc1OC [Compound 9, S-(3′,4′,5′-trimethoxyphenyl) 3-propionamido-4-methoxybenzenecarbothiolate] — higher, 46.5%
- CCC(=O)Nc1cc(C(=O)Cc2cc(OC)c(OC)c(OC)c2)ccc1OC [Compound 10, 1′-(3-propionamido-4-methoxy-benzoyl)methylene-3′,4′,5′-trimethoxybenzene] — lower, 28.9%
- COc1ccc(C(=O)Nc2cc(OC)c(OC)c(OC)c2)cc1NC(C)=O [Compound 11] — lower, 22.2%
- COc1ccc(C(=O)Oc2cc(OC)c(OC)c(OC)c2)cc1NC(C)=O [Compound 12] — lower, 31.6%
- COc1ccc(C(=O)Cc2cc(OC)c(OC)c(OC)c2)cc1NC(C)=O [Compound 13] — higher, 42.1%
- COc1ccc(C(=O)Nc2cc(OC)c(OC)c(OC)c2)cc1NC(=O)C(C)Cl (stereo not shown) [Compound 14] — lower, 11.2%
- COc1ccc(C(=O)Sc2cc(OC)c(OC)c(OC)c2)cc1NC(=O)C(C)Cl (stereo not shown) [Compound 15] — lower, 19.4%
- COc1ccc(C(=O)Cc2cc(OC)c(OC)c(OC)c2)cc1NC(=O)C(C)Cl (stereo not shown) [Compound 16] — lower, 17.3%
- COc1ccc(C(=O)Nc2cc(OC)c(OC)c(OC)c2)cc1NC(=O)CF [Compound 17] — lower, 31.1%
- COc1ccc(C(=O)Oc2cc(OC)c(OC)c(OC)c2)cc1NC(=O)CF [Compound 18] — lower, 34.5%
- COc1ccc(C(=O)Sc2cc(OC)c(OC)c(OC)c2)cc1NC(=O)CF [Compound 19] — higher, 44.3%
- COc1ccc(C(=O)Cc2cc(OC)c(OC)c(OC)c2)cc1NC(=O)CF [Compound 20] — higher, 56.0%
- COc1ccc(C(=O)Sc2cc(OC)c(OC)c(OC)c2)cc1NC(=O)C(C)F (stereo not drawn) [Compound 21, S-(3′,4′,5′-trimethoxyphenyl)-3-(2-fluoropropionamido)-4-methoxybenzenecarbothiolate] — lower, 21.1%
- COc1ccc(C(=O)Sc2cc(OC)c(OC)c(OC)c2)cc1NC(C)=O [Compound 22] — lower, 24.6%
- COc1ccc(C(=O)Nc2cc(OC)c(OC)c(OC)c2)cc1NC(=O)C(C)F (stereo not shown) [Compound 23] — lower, 29.3%
- COc1ccc(C(=O)Oc2cc(OC)c(OC)c(OC)c2)cc1NC(=O)C(C)F (stereo not shown) [Compound 24] — lower, 18.6%
- COc1ccc(C(=O)Cc2cc(OC)c(OC)c(OC)c2)cc1NC(=O)C(C)F (stereo not shown) [Compound 25, 3-(2″-fluoropropionamido)-4-methoxybenzoylmethylene-3′,4′,5′-trimethoxybenzene] — lower, 19.4%
- COc1ccc(C(=O)Oc2cc(OC)c(OC)c(OC)c2)cc1NC(=O)CCl [Compound 27] — lower, 32.1%
- COc1ccc(C(=O)Cc2cc(OC)c(OC)c(OC)c2)cc1NC(=O)CCl [Compound 28] — lower, 33.6%
- COc1ccc(C(=O)Nc2cc(OC)c(OC)c(OC)c2)cc1NC(=O)CBr [Compound 29] — lower, 25.3%
- COc1ccc(C(=O)Oc2cc(OC)c(OC)c(OC)c2)cc1NC(=O)CBr [Compound 30] — lower, 15.2%
- CCC(Br)C(=O)Nc1cc(C(=O)Nc2cc(OC)c(OC)c(OC)c2)ccc1OC (stereo not shown) [Compound 31] — lower, 26.4%
- CCC(=O)Nc1cc(C(O)Cc2cc(OC)c(OC)c(OC)c2)ccc1OC (stereo not shown) [Compound 32, 1-(3′-propionamido-4′-methoxyphenyl)-2-(3″,4″,5″-trimethoxyphenyl)ethanol] — lower, 17.6%
- CCC(=O)Nc1cc(C(=O)Nc2cc(OC)nc(OC)n2)ccc1OC [Compound 33] — lower, 21.5%
- CNc1cc(C(=O)Nc2cc(OC)c(OC)c(OC)c2)ccc1O [Compound 34] — higher, 38.3%
- CCNc1cc(C(=O)Nc2ccc(OC)c(OC)c2)ccc1OC [Compound 36] — lower, 8.6%
- CCNc1cc(C(=O)Nc2ccc(OC)cc2)ccc1OC [Compound 37] — lower, 7.7%
- CNc1cc(C(=O)Nc2cc(OC)cc(OC)c2)ccc1OC [Compound 40, N-(3′,5′-dimethoxyphenyl)-3-methylamino-4-methoxybenzamide] — lower, 12.7%
- COc1cc(NC(=O)c2ccc(OC)c(N(C)C)c2)cc(OC)c1 [Compound 41] — lower, 21.8%
- CCNc1cc(C(=O)Nc2ccc(OC)cc2)ccc1OC [Compound 42] — lower, 34.3%
- COc1ccc(NC(=O)c2ccc(OC)c(NC(C)C)c2)cc1 [Compound 43] — lower, 26.4%
- CNc1cc(CNc2cc(OC)c(OC)c(OC)c2)ccc1OC [Compound 45] — lower, 27.6%
- CCC(=O)Nc1cc(C(=O)Nc2cccc(OC)c2)ccc1OC [Compound 46] — lower, 29.1%
- CCC(=O)Nc1cc(C(=O)Nc2cc(OC)ncn2)ccc1OC [Compound 47] — lower, 18.2%
- CCC(=O)Nc1cc(C(=O)Nc2cc(OC)co2)ccc1OC [Compound 48, N-(4′-methoxyfuryl-2′-)-4-methoxy-3-propionamidobenzamide] — lower, 16.4%
- CCC(=O)Nc1cc(C(=O)Nc2cc(OC)c[nH]2)ccc1OC [Compound 49, N-(4′-methoxypyrryl-2′-)-4-methoxy-3-propionamidobenzamide] — lower, 9.8%
- CCC(=O)Nc1cc(C(=O)Nc2cccc(O)c2)ccc1OC [Compound 50] — lower, −3.1%
- CCC(=O)Nc1cc(C(=O)Nc2ccnc(O)c2)ccc1OC [Compound 51] — lower, 0.9%
- CCC(=O)Nc1cc(C(=O)Nc2cc(OC)c(O)c(OC)c2)ccc1OC [Compound 58] — lower, 16.6%
- CCC(=O)Nc1cc(NC(=O)c2cc(OC)c(OC)c(OC)c2)ccc1OC [Compound 59] — lower, 19.8%
- CCC(=O)Nc1cc(C(=O)Nc2ccccc2)ccc1OC [Compound 60] — lower, 16.3%
- CCC(=O)Nc1cc(C(=O)Nc2ccncn2)ccc1OC [Compound 61, N-(pyrimidyl-4′-)-4-methoxy-3-propionamidobenzamide] — lower, 11.8%
- CCC(=O)Nc1cc(OC(=O)c2cc(OC)c(OC)c(OC)c2)ccc1OC [Compound 62] — higher, 40.1%
- CCC(=O)Nc1cc(OC)ccc1C(=O)Nc1cc(OC)c(OC)c(OC)c1 [Compound 63, N-(3′,4′,5′-trimethoxyphenyl)-2-propionamido-4-methoxybenzamide] — lower, 21.3%
- CCC(=O)Nc1ccc(C(=O)Nc2cc(OC)c(OC)c(OC)c2)cc1OC [Compound 64, N-(3′,4′,5′-trimethoxyphenyl)-3-methoxy-4-propionamidobenzamide] — lower, 11.7%
- CCC(=O)Nc1cc(C(=O)Nc2ccc(OC(F)(F)F)cc2)ccc1OC [Compound 67] — lower, 11.3%
- COc1ccc(C(=O)Nc2cc(OC)c(OC)c(OC)c2)cc1C#N [Compound 68, N-(3′,4′,5′-trimethoxyphenyl)-3-cyano-4-methoxybenzamide] — lower, 9.8%
